The source of these data is publication PMC7181641, “Aspartate aminotransferase Rv3722c governs aspartate-dependent nitrogen metabolism in Mycobacterium tuberculosis” (Nature Communications, 2020).

In assay [1] the target is T1, Rv3722c (Mycobacterium tuberculosis, UniProt O69689).
For assay [2], the target named is T1, Rv3722c. The source holds these as a separate data set.

The structures appear in SMILES notation.

T1 sequence (O69689 whole entry): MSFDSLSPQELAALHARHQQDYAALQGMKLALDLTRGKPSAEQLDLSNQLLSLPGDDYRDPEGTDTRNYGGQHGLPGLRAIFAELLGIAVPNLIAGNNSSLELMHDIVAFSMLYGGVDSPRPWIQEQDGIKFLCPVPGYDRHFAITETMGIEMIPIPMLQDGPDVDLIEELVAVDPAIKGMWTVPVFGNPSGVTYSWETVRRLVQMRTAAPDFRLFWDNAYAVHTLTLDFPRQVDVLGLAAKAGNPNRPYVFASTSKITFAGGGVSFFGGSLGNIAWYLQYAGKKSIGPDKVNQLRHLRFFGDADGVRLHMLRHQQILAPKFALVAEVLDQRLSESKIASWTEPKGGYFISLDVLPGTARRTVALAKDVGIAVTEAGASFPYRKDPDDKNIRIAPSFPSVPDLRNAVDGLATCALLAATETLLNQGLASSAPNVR

As to `O=C(O)c1cc(O)c2ccccc2n1` [kynurenic acid], the “X-ray crystal structure, 2.23 Å” value on Rv3722c [1] is on record as “or the final keto acid product kynurenic acid (Kyna)”.
Consider `Cc1ncc(COP(=O)(O)O)c(C=O)c1O` [pyridoxal phosphate], for which the “X-ray crystal structure, 2.23 Å” value on Rv3722c [1] is “the external aldimine intermediate PLP-kynurenine (PLP-Kyn)”.
With `N[C@@H](CCC(=O)O)C(=O)O` [Glu], on Rv3722c [2], the “X-ray crystal structure, 2.6 Å” value is listed as “clear electron density of the amino acid in the active site”.
As for `Nc1ccccc1C(=O)C[C@H](N)C(=O)O` [kynurenine], at Rv3722c [1], the “X-ray crystal structure, 2.23 Å” value is on record as “chains were bound to either the external aldimine intermediate PLP-kynurenine (PLP-Kyn)”.
